# Experimental data from patent publication US9771430B2, “Method of treating a metabolic disorder induced by obesity in a subject in need thereof by administering MK2/3 inhibitors” (THE TRUSTEES OF COLUMBIA UNIVERSITY IN THE CITY OF NEW YORK, priority 2011, dated 2017).
# Experiments:
# G6pc and Pck1 mRNA = G6pc and Pck1 mRNA (RT-qPCR) in primary mouse hepatocytes; type: cell-based
# Protocol: FIG. 32A-E. Related to FIG. 26—p38. FIG. 32A Mice were fed ad libitum or fasted for 12 h. Liver phospho-p38, total p38, p-MK2, total MK-2, and β-actin were assayed by immunoblot. FIG. 32B WT HCs were serum-depleted overnight and then incubated for 5 h with 100 nm glucagon in serum-free media with or without SB202190; or glucagon was added to HCs from P38a^fl/fl mice treated with adeno-LacZ (control) or adeno-Cre. RNA was assayed for G6pc and Pck1 mRNA (*P<0.05; mean±S.E.M.). FIG. 32C HCs from fasting WT and Camk2g^−/− mice were assayed for p-p38, total p38, and β-actin. FIG. 32D WT mice were injected i.p. with 12.5 mg kg^−1 body weight of p38 inhibitor (SB202190) or vehicle control. 12 h later, the mice were injected with an additional dose of SB202190 and fasted overnight. The livers were assayed for nuclear FoxO1, nucleophosmin, p-MK2, total MK-2, and β-actin. The correlation between nuclear FoxO1 and p-MK2 band intensities is shown in the graph. FIG. 32E Adeno-GFP-FoxO1-transduced HCs were serum-depleted overnight, and then incubated for 5 h in serum-free media with SB202190 or vehicle (Veh) control. FoxO1 localization was assessed by indirect immunofluorescence (Bar, 10 μm; *P<0.05; mean±S.E.M.).
# FIGS. 53A-B. MK-2 regulates hepatic FoxO1 subcellular localization and hepatic G6Pc and Pck1. FIG. 53A. Adeno-GFP-FoxO1-transduced HCs were serum-depleted overnight, and then incubated for 30 min in serum-free media with 2 uM MK-2 inhibitor or vehicle (Veh) control. FoxO1 localization was assessed by indirect immunofluorescence (Bar, […]; *P<0.005; mean±S.E.M.). FIG. 53B WT HCs were serum-depleted overnight and then incubated for 5 h with 100 nm glucagon in serum-free media with or without MK-2 inhibitor. RNA was assayed for G6pc and Pck1 mRNA (*P<0.005; mean±S.E.M.). MK-2 Inhibitor is from Calbiochem (cat#475864): 2-(2-Quinolin-3-ylpyridin-4-yl)-1,5,6,7-tetrahydro-4H-pyrrolo-[3,2-c]pyridin-4-one.
# FIG. 69. MK-2 inhibitor suppresses forskolin-induced Pck1 and G6Pc induction in primary hepatocytes. Primary hepatocytes from WT mice were serum-depleted overnight and then pre-treated with 300 nM MK-2 inhibitor (compound 28) or vehicle for 1 h. Cells were then treated with 2 μM forskolin in serum-free media with or without the inhibitor for 4 h. RNA was assayed for G6pc and Pck1 mRNA by RT-qPCR. *, P<0.0001.
# Primary mouse HCs were isolated from 8- to 12-week-old mice as described previously (Matsumoto et al., 2002). For most experiments, the HCs were serum-depleted overnight by incubation in medium containing 0.5% fetal calf serum and were then incubated for 5 h in serum-free media, with individual treatments noted in the figure legends. HCs were transduced with adenoviral constructs 12 h after plating, and experiments were conducted 24 h after transduction. Transfections with WT, 7A- and 9A-Foxo1 were carried out using jetPEI™-hepatocyte DNA transfection reagent (Polyplus-transfection, Inc.) according to manufacturer's instructions.
# Immunoblot and RT-qPCR assays were performed as previously described (Timmins et al., 2009). Total RNA was extracted from HCs using the RNeasy kit (Qiagen). cDNA was synthesized from 2 μg total RNA using oligo (dT) and Superscript II (Invitrogen). Nuclear extraction from liver was performed using the Nuclear Extraction Kit from Panomics according to the manufacturer's instructions. […] Whether their origin is alternative splicing or post-translational modification remains to be determined.
# CRTC2 = CRTC2 dephosphorylation and nuclear translocation in primary hepatocytes; type: cell-based, mouse; settings: inhibitor pre-treatment 1 h, glucagon 100 nM
# Protocol: (§1) HEK293T (ATCC) cells were cultured in DMEM containing 10% FBS (HyClone), […] penicillin-streptomycin. Mouse primary hepatocytes were isolated and cultured as previously described (18). Cellular fractionation studies were conducted as previously reported (18). For reporter studies, Ad-CRE-luc infected hepatocytes (1 pfu per cell) were exposed to glucagon (Gcg, 100 nM) for 2˜4 h. For cyclosporine A (CsA, 10 μM) or okadaic acid (OA, 100 nM) or cell permeable calcineurin autoinhibitory peptide (10 μM) or CN585 (100 μM) or Calyculin A (10 nM) or Xestospongin C (Xc, 2 μM) or H89 (30 μM) or BAPTA (50 μM) inhibition, hepatocytes were pre-treated with the inhibitors for one hour. Luciferase activities were normalized to β-galactosidase activity from adenoviral-encoded RSV β-gal. Calcineurin activity (test kit from Enzo Life Sciences) and cellular cAMP levels (test kit from Cayman Chemical Company) were measured according to manufacturer's instructions.
# (§2) Immunoblot, immunoprecipitation, and immunostaining assays were performed as described (18). CRTC2, pCREB (Ser133), CREB, pAKT (Thr308), AKT, tubulin, HA, and FLAG antibodies were previously described (18). The antibodies anti-InsP3R1 (A302-158A) and InsP3R3 (A302-160A) were purchased from Bethyl Laboratories, anti-InsP3R2 (ab77838) from Abcam, anti-Calcineurin (610260) from BD Biosciences, anti-GRP78 (ADI-SPA-826-F) from Enzo Life Sciences, anti-phospho-PKA substrate (RRXS/T, 9624), anti-phospho-AKT substrate (RXXS/T, 9614) and CRTC2 (pS171, 2892) from Cell Signaling. CRTC2 (pS275) antibody was employed as described (19).
# CaMKII [1] = type: cell-based, mouse
# Protocol: FIG. 1A. CaMKII enzyme activity was assayed in triplicate wells of primary mouse HCs stimulated with 100 nM glucagon (Gluc) or vehicle control (Veh) for the indicated times (*P<0.05 and **P<0.01 vs. Veh; mean±S.E.M.). FIGS. 1B-1J. Extracts of HCs or liver were probed for phospho-CaMKII, total CaMKII, and β-actin by immunoblot assay. FIG. 1B. HCs were incubated with […] glucagon for the indicated times; FIG. 1C. Glucagon was added to HCs that were pre-treated for 1 h with vehicle control (Veh) or 5 μM BAPTA-AM; FIG. 1D. Glucagon was added to HCs that were pre-treated with 0.5 μM xestospongin (XesC) or to HCs from Ip3r1fl/fl mice transduced with adeno-LacZ control or adeno-Cre (bar graph=Ip3r1 mRNA levels); FIG. 1E. Glucagon was added to HCs that were pre-treated for 1 h with vehicle control (Veh) or 10 μM H89. FIG. 1F. […] FIGS. 1G-1J. In vivo experiments. In FIG. 1G, mice were treated for 30 min with 200 μg kg−1 body weight of glucagon i.p., and in FIG. 1H, mice were pre-treated with 10 pmol g−1 xestospongin C or vehicle control i.p. 4 days prior to glucagon treatment. In FIGS. 1I-1J, mice were fed ad libitum or fasted for 12 h, or fasted for 12 h and then re-fed for 4 h.
# Total RNA was extracted from hepatocytes using the RNeasy kit (Qiagen). cDNA was synthesized from 2 μg total RNA using oligo (dT) and Superscript II (Invitrogen). Real-time qPCR analysis and western blotting were performed as previously described (Timmins et al., 2009). Nuclear extraction from liver was performed using the Nuclear Extraction Kit from Panomics according to the manufacturer's instructions.
# Immunoblot and RT-qPCR assays were performed as previously described (Timmins et al., 2009). Total RNA was extracted from HCs using the RNeasy kit (Qiagen). cDNA was synthesized from 2 μg total RNA using oligo (dT) and Superscript II (Invitrogen). Nuclear extraction from liver was performed using the Nuclear Extraction Kit from Panomics according to the manufacturer's instructions.
# CaMKII [2] = settings: WT Mφs, 4 h, 5 μM
# Protocol: Immunoblots of pThr287-CaMKII in FIG. 15A WT, Insr−/−, and ob/obMφs±FC loading or oxLDL and FIG. 15B WT Mφs±4 h treatment with 5 μM U0126 ERK inhibitor.
# FoxO1 [3] = test: Nuclear FoxO1 in mouse liver (immunoblot of nuclear extracts); type: in vivo; settings: fasting mice, 12.5 mg kg−1 i.p., two doses
# Protocol: FIGS. 24A-D. CaMKII regulates hepatic FoxO1 subcellular localization. FIG. 24A HCs from WT and Camk2g^−/− mice were transduced with an adenovirus expressing murine GFP-FoxO1 at an MOI of 2. Cells were serum-depleted overnight and then incubated for 5 h in serum-free media. FoxO1 subcellular localization was assessed by indirect immunofluorescence. Bar, 10 μm. Data are quantified in the right panel. (^#P<0.0005; mean±S.E.M.). […] Bar, 5 μm. FIG. 24C HCs were transduced with adeno-LacZ or CA-CaMKII and then adeno-GFP-FoxO1 as in FIG. 24B. After incubation in serum-depleted medium o.n. and then serum-free medium for 5 h, the cells were treated with 100 nM insulin for the indicated times. FoxO1 subcellular localization was quantified as in FIG. 24B (*P<0.005 vs. LacZ in each group; mean±S.E.M.).
# FIG. 32A-E. Related to FIG. 26—p38. FIG. 32A Mice were fed ad libitum or fasted for 12 h. Liver phospho-p38, total p38, p-MK2, total MK-2, and β-actin were assayed by immunoblot. […] FoxO1 localization was assessed by indirect immunofluorescence (Bar, 10 μm; *P<0.05; mean±S.E.M.).
# Immunoblot and RT-qPCR assays were performed as previously described (Timmins et al., 2009). […] Whether their origin is alternative splicing or post-translational modification remains to be determined.
# FoxO1 [4] = test: FoxO1 subcellular localization in primary mouse hepatocytes; type: cell-based; settings: HCs treated with glucagon
# Protocol: FIG. 24A HCs from WT and Camk2g^−/− mice were transduced with an adenovirus expressing murine GFP-FoxO1 at an MOI of 2. Cells were serum-depleted overnight and then incubated for 5 h in serum-free media. FoxO1 subcellular localization was assessed by indirect immunofluorescence. Bar, 10 μm. Data are quantified in the right panel. (^#P<0.0005; mean±S.E.M.). FIG. 24B HCs were transduced with adenoviral vectors expressing LacZ, CA-CaMKII, or KD-CaMKII at an MOI of 20 and then transduced 4 h later with adeno-GFP-FoxO1, followed by fluorescence microscopy and quantification as in FIG. 24A (^#P<0.005 vs. LacZ; mean±S.E.M.). Bar, 5 μm. FIG. 24C HCs were transduced with adeno-LacZ or CA-CaMKII and then adeno-GFP-FoxO1 as in FIG. 24B. After incubation in serum-depleted medium o.n. and then serum-free medium for 5 h, the cells were treated with 100 nM insulin for the indicated times. FoxO1 subcellular localization was quantified as in FIG. 24B (*P<0.005 vs. LacZ in each group; mean±S.E.M.).
# Primary hepatocytes from WT mice were transduced with adeno-LacZ (LacZ) or adeno-DN-MK2 (DN-MK2) at an MOI of 1. […]
# cytosolic free calcium = test: Calcium mobilization in primary hepatocytes (Fura-2 imaging); type: cell-based, mouse; settings: cells expressing wild-type InsP3R1
# Protocol: Mouse primary hepatocytes were plated on glass coverslips and loaded with 5 μM Fura-2 acetoxymethyl ester (Molecular Probes) in the presence of 0.025% (w/v) pluronic F127 (Sigma-Aldrich) in Media 199 (Mediatech) for 30 minutes. […] The ratio of fluorescence intensity at the two excitation wavelengths was calculated after subtracting background fluorescence. [Ca2+]I (cytosolic free calcium concentration) was calculated using a Fura-2 calcium imaging calibration kit (Invitrogen). Images were collected and analyzed using the MetaFluor software package (Universal Imaging Corp.). Graphs represent average responses from groups of 30-40 individual cells from representative single experiments. Bar graphs represent average responses (fold over average baseline) from 150-200 cells per condition. All experiments were repeated at least three times with similar results.
# calcineurin = test: Calcineurin activity in primary hepatocytes; type: cell-based, mouse; settings: cells expressing wild-type InsP3R1
# Protocol: as §1
# [5] = tested on: InsP3R1, InsP3R2 and InsP3R3; test: InsP3R phosphorylation in hepatocytes (phospho-substrate antiserum immunoblot); type: cell-based, mouse; settings: phospho-AKT substrate antiserum
# JNK = settings: at 100 μM; cited from earlier work
# p42 MAP kinase = p42 MAP kinase (Homo sapiens, UniProt P28482); settings: at 100 μM; cited from earlier work
# CREB = test: PKA-mediated phosphorylation of CREB in hepatocytes; type: cell-based, mouse
# Protocol: as §2
# [6] = tested on: CRE-luciferase (luc) reporter; test: CRE-luciferase reporter activity in primary hepatocytes; type: cell-based, mouse; settings: response to glucagon
# Protocol: as §1
# Chain of p42 MAP kinase (P28482 whole entry): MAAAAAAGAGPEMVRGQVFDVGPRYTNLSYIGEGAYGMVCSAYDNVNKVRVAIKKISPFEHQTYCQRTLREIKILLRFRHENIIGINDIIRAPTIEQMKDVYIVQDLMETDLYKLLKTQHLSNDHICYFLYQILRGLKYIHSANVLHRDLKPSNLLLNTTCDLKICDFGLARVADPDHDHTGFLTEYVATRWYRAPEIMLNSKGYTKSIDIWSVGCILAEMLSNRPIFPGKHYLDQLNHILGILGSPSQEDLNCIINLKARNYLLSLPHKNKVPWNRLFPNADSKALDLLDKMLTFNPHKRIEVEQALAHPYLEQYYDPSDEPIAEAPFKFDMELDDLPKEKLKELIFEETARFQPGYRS
compound,measurement,setting,value
"O=C1NCCc2[nH]c(-c3ccnc(-c4cnc5ccccc5c4)c3)cc21 [MK2 inhibitor, 2-(2-Quinolin-3-ylpyridin-4-yl)-1,5,6,7-tetrahydro-4H-pyrrolo-[3,2-c]pyridin-4-one]",nuclear FoxO1 and induction of genes involved in hepatic glucose production,"G6pc and Pck1 mRNA; 2 uM MK-2 inhibitor, glucagon 100 nm 5 h (FIG. 53)",importance of MK2 in both nuclear FoxO1 and in induction of genes
C=C1[C@@H](O)[C@@H]2O[C@]3(CC[C@H](/C=C/[C@@H](C)[C@@H]4CC(C)=C[C@@]5(O[C@H](C[C@@](C)(O)C(=O)O)CC[C@H]5O)O4)O3)CC[C@H]2O[C@@H]1[C@@H](O)C[C@H](C)[C@H]1O[C@@]2(CCCCO2)CC[C@H]1C [okadaic acid],glucagon-induced dephosphorylation (and nuclear translocation) of CRTC2,CRTC2,did not
C1CNC1 [azetidine],p-CaMKIIγ in HCs,CaMKII [1]; ER stress activation,increased
N#CC(=C(/N)Sc1ccccc1N)/C(C#N)=C(\N)Sc1ccccc1N [U0126],p-CaMKII,CaMKII [2],increase
Oc1ccc(-c2nc(-c3ccncc3)c(-c3ccc(F)cc3)[nH]2)cc1 [SB202190],nuclear FoxO1 in liver as a function of p38 inhibition (p-MK2),FoxO1 [3],clear decrease
same,nuclear GFP-FoxO1,FoxO1 [4],decreased
same,expression of G6pc and Pck1,G6pc and Pck1 mRNA; glucagon-stimulated HC,blocked
insulin: hormone,glucagon-dependent increases in calcium mobilization,cytosolic free calcium,reduced
same,glucagon-dependent increases in calcineurin activation,calcineurin,reduced
same,InsP3R phosphorylation,[5],increased
C[S+]([O-])c1ccc(-c2nc(-c3ccncc3)c(-c3ccc(F)cc3)[nH]2)cc1 (stereo not drawn) [SB203580],inhibition of JNK,JNK,does not significantly inhibit
same,inhibition of p42 MAP kinase,p42 MAP kinase,does not significantly inhibit
C=C[C@@]1(C)CC(=O)[C@]2(O)[C@@]3(C)[C@@H](O)CCC(C)(C)[C@@H]3[C@H](O)[C@H](OC(C)=O)[C@@]2(C)O1 [forskolin],"G6pc mRNA, untreated WT HCs lower than forskolin-treated WT HCs",G6pc and Pck1 mRNA; forskolin 10 μM,~165 fold
same,"Pck1 mRNA, untreated WT HCs lower than forskolin-treated WT HCs",G6pc and Pck1 mRNA; forskolin 10 μM,~2500 fold
"CC(=O)OCOC(=O)CN(CC(=O)OCOC(C)=O)c1ccccc1OCCOc1ccccc1N(CC(=O)OCOC(C)=O)CC(=O)OCOC(C)=O [BAPTA-AM, 1,2-bis[2-aminophenoxy]ethane-N,N,N′,N′-tetraacetic acid tetrakis[acetoxymethyl ester]]",PKA-mediated phosphorylation of CREB in response to glucagon,CREB,did not block
same,glucagon-induced CaMKII phosphorylation,"CaMKII [1]; HCs pre-treated with inhibitor, then glucagon",markedly decreased
same,CRE-luciferase (luc) reporter activity / activation,[6],disrupted
same,glucagon-induced dephosphorylation (and nuclear translocation) of CRTC2,CRTC2,disrupted
